Experiments:
JAK1 kinase = JAK1 kinase (Homo sapiens (Human), UniProt P23458); test: Assay for inhibiting JAK1 kinase (in vitro kinase assay, HRP anti-phosphotyrosine antibody/TMB absorbance); assay type: biochemical; conditions: 20 μM ATP, 50 minutes at room temperature; read-out: IC50 (JAK1/Bio)
Experimental: In vitro activity of compounds of the present invention for inhibiting JAK1 kinase was determined by the following method.
IC50 values of test compounds was calculated from the data of the test compounds in inhibiting the activity of JAK1 kinase at different concentrations.

T cells = test: Proliferation inhibition assay on T cells (PBMC, anti-CD3, IL-2, ATPlite); assay type: cell-based; conditions: Homo sapiens, T-cell; IL-2 10 ng/mL, 72 hours
From the text: The following in vitro assay is to determine the activity of the compounds of the present invention for inhibiting the proliferation of T cells.
The activity is represented by the IC50 value.
The general procedures of the assay are given as follows: first, the PBMC cell line (purchased from Shanghai Blood Center) was centrifuged, the supernatant was removed, and the cells counted. […] Then, the cells were washed 3 times, resuspended, diluted to 2×10^6/mL, and then mixed with recombinant human IL-2 (purchased from Peprotech, Catalog Number: 200-02) to a concentration of 10 ng/mL, and cultured for another 3 days. The cells were washed again 3 times, and diluted to 5×10^5/mL. 80 μL of the cells were seeded in each well of a 96-well cell culture plate. […] To the control wells, 10 μL culture medium were added. The plate was placed in an incubator. After incubating for 1 hr, negative control wells were mixed with 10 μL of culture medium, and the rest of the wells were mixed with IL-2 to a concentration of 10 ng/mL, and incubated continuously for 72 hours. […] IC50 values were calculated from the data of inhibition rates at various concentrations of the test compounds.
(§1) The biological activity of the compounds of the present invention was tested by using the assay described above.

[1] = Pharmacokinetics assay in rats, intragastric administration, plasma by LC/MS/MS; assay type: in vivo, Sprague-Dawley (SD) rats; conditions: both sexes, Sprague-Dawley, rat, plasma, po, SD rats, 10 mg/kg; for Vd/F: read-out: Apparent Distribution Volume Vz/F; for AUC: read-out: Area Under Curve AUC; for CL/F: read-out: Clearance CL/F; for half-life: read-out: Half-Life t½ (converted); for Cmax: read-out: Plasma Conc. Cmax
How it was run: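 Fasted SD rats of both sexes dosed intragastrically at 10.0 mg/kg as a 1.0 mg/mL DMSO suspension; fed 2 h post-dose. Plasma sampled at various time points, protein-precipitated with methanol plus internal standard, and analyzed by LC-MS/MS.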

JAK3 kinase = JAK3 kinase (Homo sapiens (Human), UniProt P52333); test: Assay for inhibiting JAK3 kinase (in vitro kinase assay, HRP anti-phosphotyrosine antibody/TMB absorbance); assay type: biochemical; conditions: 50 minutes at room temperature; read-out: IC50 (JAK3/Bio)
Experimental: In vitro activity of compounds of the present invention for inhibiting JAK3 kinase was determined by the following method.

JAK2 kinase = JAK2 kinase (Homo sapiens (Human), UniProt O60674); test: Assay for inhibiting JAK2 kinase (in vitro kinase assay, HRP anti-phosphotyrosine antibody/TMB absorbance); assay type: biochemical; conditions: 20 μM ATP, 50 minutes at room temperature; read-out: IC50 (JAK2/Bio)
Experimental: In vitro activity of compounds of the present invention for inhibiting JAK2 kinase was determined by the following method.

[2] = system: human erythroid leukemia cell line TF-1; test: Proliferation inhibition assay on human erythroid leukemia cell line TF-1 mediated by IL-4 (Cell Counting Kit-8); assay type: cell-based; conditions: TF-1 cells, 10 ng/mL IL-4, 72 hours
From the text: The following in vitro assay is to determine the activity of the compounds of the present invention for inhibiting the proliferation of human erythroid leukemia cell line TF-1.
The activity is represented by the IC50 value, which can not only reflect the activity of a test compound for inhibiting JAK2 and JAK3 kinase, but can also reflect the selectivity of a test compound for JAK2 and JAK3 kinase.
The general procedures of the assay are given as follows: first, the TF-1 cells (purchased from ATCC, Catalog number: CRL 2003) were seeded in a 96-well cell culture plate at a suitable cell concentration (8000 cells/mL medium), and 10 ng/mL IL-4 (Invitrogen, Catalog Number: PHC0044) were added to each well. Then 10× serial concentration gradient of test compounds solutions (10000, 1000, 100, 10, 1 and 0.1 nM) were prepared, and then the 10× compound solutions prepared above were added to the 96-well cell culture plate containing IL-4. After the cell plates were cultured continuously for 72 hours, the activity of the test compounds for inhibiting the cell proliferation was determined by using a Cell Counting Kit-8 (purchased from Dojindo, Catalog Number: CK04). IC50 values were calculated from the data of the inhibition rates at various concentrations of the test compounds.
as §1

Sequence of JAK3 kinase (P52333 whole entry): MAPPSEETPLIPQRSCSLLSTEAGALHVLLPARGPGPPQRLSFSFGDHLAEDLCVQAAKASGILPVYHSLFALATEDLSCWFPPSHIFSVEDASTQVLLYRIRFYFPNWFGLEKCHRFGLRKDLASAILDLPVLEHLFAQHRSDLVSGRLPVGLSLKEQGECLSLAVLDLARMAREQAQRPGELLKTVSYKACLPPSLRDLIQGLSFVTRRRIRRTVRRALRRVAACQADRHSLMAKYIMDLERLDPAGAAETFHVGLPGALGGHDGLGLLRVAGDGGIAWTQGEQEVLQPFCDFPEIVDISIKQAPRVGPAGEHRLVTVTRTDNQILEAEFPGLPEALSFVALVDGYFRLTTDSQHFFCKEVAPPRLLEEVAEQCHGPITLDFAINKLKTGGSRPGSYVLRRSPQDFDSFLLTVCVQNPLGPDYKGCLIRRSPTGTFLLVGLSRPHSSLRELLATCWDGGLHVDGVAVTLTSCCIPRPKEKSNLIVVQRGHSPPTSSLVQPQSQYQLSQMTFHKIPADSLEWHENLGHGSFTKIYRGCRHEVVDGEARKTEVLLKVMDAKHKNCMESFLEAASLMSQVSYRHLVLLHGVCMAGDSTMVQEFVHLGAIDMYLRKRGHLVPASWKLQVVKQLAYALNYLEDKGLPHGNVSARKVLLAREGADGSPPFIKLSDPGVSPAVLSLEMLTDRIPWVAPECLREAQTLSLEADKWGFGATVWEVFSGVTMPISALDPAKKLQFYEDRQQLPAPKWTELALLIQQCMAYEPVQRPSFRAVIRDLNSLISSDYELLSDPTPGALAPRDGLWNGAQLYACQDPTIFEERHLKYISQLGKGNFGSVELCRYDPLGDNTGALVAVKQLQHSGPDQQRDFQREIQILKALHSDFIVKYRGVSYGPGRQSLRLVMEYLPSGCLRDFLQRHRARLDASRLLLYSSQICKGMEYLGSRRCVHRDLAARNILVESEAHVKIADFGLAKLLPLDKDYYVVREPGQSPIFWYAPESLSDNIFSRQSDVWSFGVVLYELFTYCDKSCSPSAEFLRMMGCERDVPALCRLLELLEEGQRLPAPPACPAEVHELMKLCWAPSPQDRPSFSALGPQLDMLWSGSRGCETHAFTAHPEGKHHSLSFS
Sequence of JAK2 kinase (O60674 whole entry): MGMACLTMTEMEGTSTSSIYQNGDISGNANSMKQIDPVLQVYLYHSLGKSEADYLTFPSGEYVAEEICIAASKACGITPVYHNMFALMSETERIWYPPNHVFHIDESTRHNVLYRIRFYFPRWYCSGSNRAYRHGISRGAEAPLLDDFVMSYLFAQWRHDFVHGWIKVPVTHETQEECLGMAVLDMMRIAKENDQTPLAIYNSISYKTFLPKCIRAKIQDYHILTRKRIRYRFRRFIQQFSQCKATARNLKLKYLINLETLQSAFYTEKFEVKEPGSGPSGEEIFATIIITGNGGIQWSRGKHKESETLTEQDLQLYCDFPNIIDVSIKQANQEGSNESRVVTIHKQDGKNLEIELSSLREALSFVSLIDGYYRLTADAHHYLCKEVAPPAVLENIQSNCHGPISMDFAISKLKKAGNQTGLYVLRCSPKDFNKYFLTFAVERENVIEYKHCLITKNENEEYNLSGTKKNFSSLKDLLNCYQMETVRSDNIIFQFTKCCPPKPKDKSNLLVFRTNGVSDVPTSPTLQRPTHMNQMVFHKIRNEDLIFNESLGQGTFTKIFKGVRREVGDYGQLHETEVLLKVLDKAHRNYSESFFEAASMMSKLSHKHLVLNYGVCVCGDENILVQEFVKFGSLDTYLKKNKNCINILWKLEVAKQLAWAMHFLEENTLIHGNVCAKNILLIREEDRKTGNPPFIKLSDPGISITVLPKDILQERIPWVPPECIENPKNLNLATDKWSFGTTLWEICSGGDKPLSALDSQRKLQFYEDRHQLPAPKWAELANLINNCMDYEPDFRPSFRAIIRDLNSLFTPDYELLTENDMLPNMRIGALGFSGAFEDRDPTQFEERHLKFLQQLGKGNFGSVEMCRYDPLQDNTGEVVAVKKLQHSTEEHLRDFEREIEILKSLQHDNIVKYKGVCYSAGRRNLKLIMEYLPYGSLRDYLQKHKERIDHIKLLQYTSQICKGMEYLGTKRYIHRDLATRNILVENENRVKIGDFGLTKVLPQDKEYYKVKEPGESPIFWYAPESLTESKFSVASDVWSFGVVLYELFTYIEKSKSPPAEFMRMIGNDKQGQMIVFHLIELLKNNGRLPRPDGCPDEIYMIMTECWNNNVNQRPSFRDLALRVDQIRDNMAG
Sequence of JAK1 kinase (P23458 whole entry): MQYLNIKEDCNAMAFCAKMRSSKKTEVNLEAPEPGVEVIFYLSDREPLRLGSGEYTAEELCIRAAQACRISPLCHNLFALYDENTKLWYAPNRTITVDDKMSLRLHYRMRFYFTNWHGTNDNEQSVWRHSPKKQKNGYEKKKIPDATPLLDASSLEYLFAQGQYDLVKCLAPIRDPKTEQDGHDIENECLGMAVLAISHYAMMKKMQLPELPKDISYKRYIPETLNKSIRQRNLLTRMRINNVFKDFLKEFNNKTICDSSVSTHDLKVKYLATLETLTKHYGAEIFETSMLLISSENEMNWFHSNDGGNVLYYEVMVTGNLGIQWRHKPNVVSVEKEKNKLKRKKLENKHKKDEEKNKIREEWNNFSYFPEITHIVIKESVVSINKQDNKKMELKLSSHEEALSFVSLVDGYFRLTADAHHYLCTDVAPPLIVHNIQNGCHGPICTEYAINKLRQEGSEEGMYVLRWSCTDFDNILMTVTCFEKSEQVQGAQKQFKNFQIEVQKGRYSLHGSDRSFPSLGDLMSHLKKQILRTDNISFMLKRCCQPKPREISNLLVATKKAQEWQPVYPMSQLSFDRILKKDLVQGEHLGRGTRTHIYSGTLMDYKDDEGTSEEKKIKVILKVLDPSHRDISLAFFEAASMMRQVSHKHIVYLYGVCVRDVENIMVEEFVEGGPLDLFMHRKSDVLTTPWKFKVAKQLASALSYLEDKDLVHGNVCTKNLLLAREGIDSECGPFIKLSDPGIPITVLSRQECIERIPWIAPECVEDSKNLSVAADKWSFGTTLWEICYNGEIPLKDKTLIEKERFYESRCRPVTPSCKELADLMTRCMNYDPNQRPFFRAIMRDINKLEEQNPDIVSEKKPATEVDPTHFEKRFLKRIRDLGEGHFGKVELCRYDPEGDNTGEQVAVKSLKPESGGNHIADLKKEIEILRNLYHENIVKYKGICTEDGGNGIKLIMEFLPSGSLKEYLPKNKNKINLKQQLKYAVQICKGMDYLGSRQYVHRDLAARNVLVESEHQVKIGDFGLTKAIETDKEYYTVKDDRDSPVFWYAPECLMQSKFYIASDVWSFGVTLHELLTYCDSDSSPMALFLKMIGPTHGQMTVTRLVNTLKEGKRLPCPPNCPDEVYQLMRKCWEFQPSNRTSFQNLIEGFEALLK

SMILES | IC50 (JAK1 kinase) | Vd/F [1] | AUC [1] | CL/F [1] | half-life [1] | Cmax [1] | IC50 (JAK3 kinase) | IC50 (JAK2 kinase) | also measured
CN(c1ncnc2[nH]ccc12)[C@@H]1C[C@H]2CN(C(=O)CO)C[C@@]2(C)C1 (racemic) [Example 14, 2-hydroxy-1-((3aS,5R,6aR/3aS,5R,6aR)-3a-methyl-5-(methyl(7H-pyrrolo[2,3-d]pyrimidin-4-yl)amino)hexahydrocyclopenta[c]pyrrol-2(1H)-yl)ethanone] | 30 nM | – | – | – | – | – | – | – | IC50 (T cells): 712 nM
CN(c1ncnc2[nH]ccc12)[C@H]1C[C@@H]2CN(C(=O)CO)C[C@@H]2C1 [Example 6, 2-Hydroxy-1-((3aR,5S,6aS)-5-(methyl(7H-pyrrolo[2,3-d]pyrimidin-4-yl)amino)hexahydrocyclopenta[c]pyrrol-2(1H)-yl)ethanone] | 5 nM | 34.5 ± 21 L/kg | 2210 ± 1470 ng·h/mL | 110 ± 71 mL/min/kg | 241 ± 91.2 min | 1230 ± 549 ng/mL | 11 nM | 45 nM | MRT ([1]; read-out: Mean Residence Time MRT): 2.19 ± 0.6 h
CN(c1ncnc2[nH]ccc12)[C@H]1C[C@H]2CNC(=O)C[C@H]2C1 [Example 40, (4aR,6R,7aR)-6-(Methyl(7H-pyrrolo[2,3-d]pyrimidin-4-yl)amino) hexahydro-1H-cyclopenta[c]pyridin-3(2H)-one] | – | 6.99 ± 3.39 L/kg | 5230 ± 1170 ng·h/mL | 33.2 ± 7.7 mL/min/kg | 163 ± 109 min | 1520 ± 317 ng/mL | – | 23 nM | IC50 [2]: 399 nM
CN(c1ncnc2[nH]ccc12)[C@H]1C[C@@H]2CN(C(=O)Nc3nc(CO)ns3)C[C@@H]2C1 [Example 50, (3aR,5S,6aS)—N-(3-(Hydroxymethyl)-1,2,4-thiadiazol-5-yl)-5-(methyl(7H-pyrrolo[2,3-d]pyrimidin-4-yl)amino)hexahydrocyclopenta[c]pyrrole-2(1H)-carboxamide] | 0.5 nM | – | – | – | – | – | 201 nM | 7 nM | –
CN(c1ncnc2[nH]ccc12)[C@H]1C[C@@H]2CN(CC(F)(F)F)C[C@@H]2C1 [Example 56, N-methyl-N-((3aR,5S,6aS)-2-(2,2,2-trifluoroethyl)octahydrocyclopenta[c]pyrrol-5-yl)-7H-pyrrolo[2,3-d]pyrimidin-4-amine] | 11 nM | – | – | – | – | – | 75 nM | 32 nM | –
CN(c1ncnc2[nH]ccc12)[C@@H]1C[C@@H]2CN(CC#N)C[C@@H]2C1 [Example 69, 2-((3aR,5R,6aS)-5-(methyl(7H-pyrrolo[2,3-d]pyrimidin-4-yl)amino)hexahydrocyclopenta[c]pyrrol-2(1H)-yl)acetonitrile] | 5 nM | – | – | – | – | – | 20 nM | 4 nM | –
CN(c1ncnc2[nH]ccc12)[C@H]1C[C@@H]2CN(C(=O)[C@H](O)C(F)(F)F)C[C@@H]2C1 [Example 94, (S)-3,3,3-trifluoro-2-hydroxy-1-((3aR,5R,6aS)-5-(methyl(7H-pyrrolo[2,3-d]pyrimidin-4-yl)amino)hexahydrocyclopenta[c]pyrrol-2(1H)-yl)propan-1-one] | – | – | – | – | – | – | – | – | IC50 (T cells): 127 nM; IC50 ([2]; Homo sapiens): 152 nM
CN(c1ncnc2[nH]ccc12)[C@H]1C[C@@H]2CN(C(=O)OCC(F)(F)F)C[C@@H]2C1 [Example 111, (3aR,5S,6aS)-2,2,2-trifluoroethyl 5-(methyl(7H-pyrrolo[2,3-d]pyrimidin-4-yl)amino)hexahydrocyclopenta[c]pyrrole-2(1H)-carboxylate] | 96 nM | – | – | – | – | – | 101 nM | 146 nM | –
CN(c1ncnc2[nH]cc(F)c12)[C@H]1C[C@@H]2CN(C(=O)CO)C[C@@H]2C1 [Example 128, 1-((3aR,5S,6aS)-5-((5-fluoro-7H-pyrrolo[2,3-d]pyrimidin-4-yl)(methyl)amino)hexahydrocyclopenta[c]pyrrol-2(1H)-yl)-2-hydroxyethanone] | 13 nM | 11.4 ± 4.15 L/kg | 2320 ± 1030 ng·h/mL | 84.3 ± 37.8 mL/min/kg | 97.2 ± 16.8 min | 1420 ± 150 ng/mL | 4 nM | – | –
CN(c1ncnc2[nH]ccc12)[C@H]1C[C@H]2CNC(=O)C[C@H]2C1 [Example 147, (4aR,6R,7aR)-6-(methyl(7H-pyrrolo[2,3-d]pyrimidin-4-yl)amino)hexahydro-1H-cyclopenta[c]pyridin-3(2H)-one] | – | – | – | – | – | – | – | 5 nM | IC50 [2]: 15 nM
CN(c1ncnc2[nH]ccc12)[C@@H]1CC2CNC(=O)CC2C1 (stereo partly drawn) [Example 148, (6S)-6-(methyl(7H-pyrrolo[2,3-d]pyrimidin-4-yl)amino)hexahydro-1H-cyclopenta[c]pyridin-3(2H)-one] | – | 6.99 ± 3.39 L/kg | 5230 ± 1170 ng·h/mL | 33.2 ± 7.7 mL/min/kg | 163 ± 109 min | 1520 ± 317 ng/mL | – | 23 nM | IC50 ([2]; Homo sapiens, TF-1, 72 h): 399 nM
CC(C)C(=O)N1CC[C@H]2C[C@@H](N(C)c3ncnc4[nH]ccc34)C[C@H]2C1 [Example 151, 2-methyl-1-((4aS,6R,7aR)-6-(methyl(7H-pyrrolo[2,3-d]pyrimidin-4-yl)amino)hexahydro-1H-cyclopenta[c]pyridin-2(3H)-yl)propan-1-one] | 106 nM | – | – | – | – | – | 203 nM | 127 nM | –

From patent US9527851B2, “Pyrrole six-membered heteroaryl ring derivative, preparation method thereof, and medicinal uses thereof” (Jiangsu Hengrui Medicine Co., Ltd., priority 2011, dated 2016)
